Data set [1] concerns Ca^2+ transients in wt zebrafish isolated adult heart. Briefly: Ca^2+ transients in wt zebrafish isolated adult heart. The following applies: for Amplitude (Maximal deflection from baseline) / Area (Area under the transient relative to baseline) / Decay slope (−Δ Fluorescence in the linear phase/sec) / Rate / Rise slope (+Δ Fluorescence in the linear phase/sec): Ouabain 200 μM, MK-2206 1 nM. The procedure:
(§1) Spontaneous Ca^2+ transients were measured in isolated hearts from adult zebrafish. The zebrafish were stunned by a blow to the head and the hearts were removed quickly and placed in Dulbecco's Modified Eagle's Medium (DMEM) containing 10% Fetal Bovine Serum (FBS) at room temperature. A total 3-5 hearts were placed in a small Petri dish containing 100 μl Krebs-Ringer's solution (119 mM NaCl, 2.5 mM KCl, 1 mM NaH2PO4, 2.5 mM CaCl2, 1.3 mM MgCl2, 20 mM HEPES and 11 mM D-glucose) with 0.01 mM Fura-2 AM (Biotium, Inc., CA, USA) in DMEM-FBS. Following incubation for 10 min (37° C., 5% CO2), 150 μl of Krebs-Ringer's solution were added to the Petri dish which was incubated for an additional 30 minutes. The dye was removed from the solution by two incubations (10 minutes each, room temperature) in DMEM-FBS solution. Intracellular Ca^2+ transients were measured in stabilizing medium containing 1% low-melt agarose in Krebs-Ringer's solution. The hearts were kept for 30 minutes in the presence of MK-2206 (or saline) and then underwent excitation/emission cycles for 2 minutes at 340 and 380 nm with 510 nm emission using a PTI fluorimetric system (Photon Technology International, Madison, USA). Ouabain was then added and the excitation/emission cycles were monitored for 8 minutes. The Ca^2+ levels are presented as the ratio of 340/380 nm fluorescence emission.

The test system of data set [2] is adult acc mutant primary cardiomyocytes. Briefly: acc mutant primary cardiomyocyte contractility. Conditions: for amplitude of contractility: 0.1 nM ouabain or 1 nM MK-2206 alone; for Amplitude / Contraction Rate (−dv/dt) / Relaxation Rate (+dv/dt): Acc mutant, 0.1 nM Oua, 1 nM MK, 20 minutes, 0.5 Hz. Type of data set: cell-based, zebrafish. The procedure: Adult (4 to 12-month-old) ventricular myocytes were obtained by enzymatic dissociation (with collagenase II and IV, at 5 mg/ml, each). The zebrafish were stunned by a blow to the head and the brain was pithed. The heart was quickly removed and placed in a small Petri dish containing 10 ml isolation solution: 100 mM NaCl, 10 mM KCl, 1.2 mM KH2PO4, 4 mM MgSO4, 50 mM taurine, 20 mM glucose, and 10 mM Hepes, pH 6.9. The ventricle was cut free from the bulbus and atrium under a binocular. Ventricles from 3 fish were incubated for 45 minutes at 32° C. in a solution containing perfusion buffer (150 mM NaCl, 5.4 mM KCl, 1.5 mM MgSO4, 0.4 mM NaH2PO4, 2 mM CaCl2, 10 mM glucose, and 10 mM Hepes, pH 7.7). Collagenases II and IV (Gibco, NY, USA, 5 mg/ml each) and additional CaCl2 (2.012 mM final concentration) were added. Following Eppendorf centrifugation (1 minute, 250×g at room temperature) the precipitated cells were suspended in 1 ml perfusion buffer for 30 minutes at room temperature before use.
Cells were transferred to a chamber with a quartz base and examined using an inverted epifluorescence microscope (Nikon Diaphot 200, Japan). The myocytes were field-stimulated (0.5 Hz, 70 V, square waves) and contractions were measured using a video motion edge detector (Crescent Electronics, Sandy, Utah, USA) at the rate of 5 Hz. Cardiomyocyte performance was calculated as the percentage of resting cell length. The slopes of contraction and relaxation (+dL/dt and −dL/dt) were calculated from the linear portions of the changes in contractility. 9 cells per each group were measured. Each of the experiments was repeated at least 3 times with identical results.

Data set [3] relates to Ca^2+ transients in acc mutant zebrafish isolated adult heart. Briefly: Ca^2+ transients in acc mutant zebrafish isolated adult heart. Conditions: for Amplitude (Maximal deflection from baseline) / Area (Area under the transient relative to baseline) / Decay slope (−Δ Fluorescence in the linear phase/sec) / Rate / Rise slope (+Δ Fluorescence in the linear phase/sec): Acc mutant, Ouabain 200 μM, MK-2206 1 nM. The procedure:
as §1

The subject of data set [4] is LAD-ligated rats. In words: Heart contractility (echocardiography: SF, HR) in LAD-ligated rats. In kind it is in vivo, rat. Conditions: for effect on heart rate: 24 hours, 3 and 6 days post MI; for SF improvement relative to 24 hours post MI: ouabain 0.8 mg/kg/day, MK-2206 12 mg/kg/day, 3, 6 and 10 days post MI. The method, then:
Male Wister rats (150-175 g body weight) were used. Left anterior descending artery (LAD)-ligation was performed in all animals. The rats were divided to four groups, each treated with subcutaneous injection with saline (0.5 ml/kg/day), ouabain (0.8-8 mg/kg/day), MK-2206 (12 mg/Kg/day) or a combination of MK-2206 and ouabain. All injected solutions contained 9% DMSO. Heart contractility in-vivo was monitored using echocardiography. At the end of the treatment period, animals were sacrificed and heart and blood samples were harvested for analysis. Blood samples were also collected (from the eye) at baseline and 24 hours post myocardial infarction (MI).
Rats were anesthetized with 10% ketamine, 2% xylazine (0.1 ml/kg) and ventilated with a small animal respirator (Harvard). The heart was exposed via left sternotomy, and the LAD-ligation was induced by placing a 6-0 silk suture around the left anterior descending coronary artery near the atrial auricle. The animals were allowed to recover and treated with 0.5 mg/100 g Tramadol Hydrochloride by subcutaneous injection for post-operative analgesia.
Echocardiograms were performed on rats anesthetized with 2% isoflurane at baseline, at 24 hours, as well as at 3, 6 and 10 days post LAD-ligation, using a VEVO 770 equipped with a 30 MHz linear transthoracic transducer (VisualSonics). Measurements were performed in triplicate using the leading-edge convention for myocardial borders as defined by the […]. Left ventricular, end-diastolic and end-systolic diameters (LVEDD and LVESD), diastolic and systolic interventricular septal diameters (IVSD and IVSS), left ventricular diastolic area (LVEDA), left ventricular systolic area (LVESA), and heart rate (HR) were measured. Shortening fraction (SF) was calculated by the equation: SF (%)=(LVEDD−LVESD)/LVEDD×100. Heart rate was measure by peak intervals of the echocardiography measurements. All measurements were performed by an individual who was blind to the entire experimental protocol and animal treatments.

Molecules are shown by their SMILES.

On to `NC1(c2ccc(-c3nc4ccn5c(=O)[nH]nc5c4cc3-c3ccccc3)cc2)CCC1` [MK-2206], for which, in data set [1], the “Amplitude (Maximal deflection from baseline)” value is listed as 4.8 ± 0.13, the “Area (Area under the transient relative to baseline)” value was determined as 2.81 ± 0.19, the “Decay slope (−Δ Fluorescence in the linear phase/sec)” value was 4.65 ± 0.54 and the Rate worked out at 48 ± 4.8 wave/min. The “Rise slope (+Δ Fluorescence in the linear phase/sec)” value in data set [1] worked out at 1.65 ± 0.28. Also, in data set [2], the amplitude of contractility result was “did not affect the amplitude”, the Amplitude stood at 0.15 ± 0.02, the “Contraction Rate (−dv/dt)” value is 2.61 ± 0.74 and the “Relaxation Rate (+dv/dt)” value came to 0.98 ± 0.34. Further, in data set [3], the “Amplitude (Maximal deflection from baseline)” value came to 1.85 ± 0.05, the “Area (Area under the transient relative to baseline)” value is 2.79 ± 0.23, the “Decay slope (−Δ Fluorescence in the linear phase/sec)” value is 1.72 ± 0.22 and the Rate is on record as 25 ± 3 wave/min. In addition, the “Rise slope (+Δ Fluorescence in the linear phase/sec)” value in data set [3] is 0.51 ± 0.04. In addition, in data set [4], the “effect on heart rate” value is “did not affect significantly heart rate” and the “SF improvement relative to 24 hours post MI” value is on record as “did not result in SF improvement”.

Regarding `C[C@@H]1O[C@@H](O[C@H]2C[C@@H](O)[C@]3(CO)[C@H]4[C@H](O)C[C@]5(C)[C@@H](C6=CC(=O)OC6)CC[C@]5(O)[C@@H]4CC[C@]3(O)C2)[C@H](O)[C@H](O)[C@H]1O` [ouabain, 3-(alpha-L-Rhamnopyranosyloxy)-1beta,5beta,11alpha,14,19-pentahydroxy-5beta-card-20(22)-enolide], in data set [1] (200 μM ouabain), the “increase in amplitude of the Ca^2+ transients” value turned out to be 27%, the “increase in decay slope of the Ca^2+ transients” value stood at 86% and the “increase in rise slope of the Ca^2+ transients” value was determined as 61%. Moreover, in data set [1], the “Amplitude (Maximal deflection from baseline)” value is given as 6.59 ± 0.71, the “Area (Area under the transient relative to baseline)” value was 2.94 ± 0.44, the “Decay slope (−Δ Fluorescence in the linear phase/sec)” value was found to be 20 ± 3.51 and the Rate came to 52 ± 6.8 wave/min. In addition, the “Rise slope (+Δ Fluorescence in the linear phase/sec)” value in data set [1] amounted to 7.84 ± 2.02. In addition, in data set [2], the amplitude of contractility entry is on record as “did not affect the amplitude”, the Amplitude was 0.14 ± 0.03, the “Contraction Rate (−dv/dt)” value is on record as 2.43 ± 0.84 and the “Relaxation Rate (+dv/dt)” value came out at 0.07 ± 0.05. Further, in data set [2] (ouabain in the presence of Akt inhibitor), the “increase in the contraction amplitude” value came out at 67%. In data set [3], the “Amplitude (Maximal deflection from baseline)” value is given as 1.67 ± 0.15, the “Area (Area under the transient relative to baseline)” value amounted to 2.54 ± 0.56, the “Decay slope (−Δ Fluorescence in the linear phase/sec)” value is on record as 1.92 ± 0.46 and the Rate is given as 35 ± 8.4 wave/min. In addition, the “Rise slope (+Δ Fluorescence in the linear phase/sec)” value in data set [3] is on record as 0.47 ± 0.1. In data set [3] (acc, 200 μM ouabain), the “changes in Ca^2+ transients parameters” value is reported as “did not result in any changes in the Ca^2+ transients parameters”. Also, the “changes in Ca^2+ transient parameters in the presence of Akt inhibitor” value in data set [3] (acc, 200 μM ouabain, Akt inhibitor) is reported as “did not cause any changes in Ca^2+ transient parameters”. In data set [4] (0.8 mg/kg/day, by itself), the “effect on shortening fraction (SF) following LAD-ligation” value is recorded as “did not increase SF”. For the same compound, the “effect on shortening fraction (SF) following LAD-ligation” value in data set [4] (8 mg/kg/day) is on record as “significantly increased the SF of the heart starting at the 3rd day of treatment”. For the same compound, in data set [4], the “effect on heart rate” value is “did not affect significantly heart rate” and the “SF improvement relative to 24 hours post MI” value was “did not result in SF improvement”.
